In patent publication US9187472B2 (AbbVie Inc., priority 2012, dated 2015):

System: PC3 cells
Experiment: NAMPT Cell Proliferation Assay
Assay type: cell-based
Conditions: Homo sapiens, PC-3, 120 h, 5 days incubation, cell viability by Cell Titer Glo
How it was run: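 Seed PC3 at 500 cells/well (RPMI, 10% HI-FBS), attach overnight; add compound, 10-fold series 10 μM → 1×10^−5 μM; incubate 5 d, 37° C/5% CO2; luminescent viability readout; fit % inhibition sigmoidally for IC50.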

| Structure (SMILES) | IC50 |
| --- | --- |
| CCC(CC)C(=O)N1CCC(c2ccc(NC(=O)NCc3ccn4ccnc4c3)cc2)CC1 [Example 942, 1-{4-[1-(2-ethylbutanoyl)piperidin-4-yl]phenyl}-3-(imidazo[1,2-a]pyridin-7-ylmethyl)urea] | 1.02 nM |
| O=C(NCc1ccn2ccnc2c1)Nc1ccc(C2CCN(C(=O)COc3ccc(F)cc3)CC2)cc1 [Example 943, 1-(4-{1-[(4-fluorophenoxy)acetyl]piperidin-4-yl}phenyl)-3-(imidazo[1,2-a]pyridin-7-ylmethyl)urea] | 24.4 nM |
| COc1ccc(C(=O)N2CCC(c3ccc(NC(=O)NCc4ccn5ccnc5c4)cc3)CC2)c(OC)c1 [Example 944, 1-{4-[1-(2,4-dimethoxybenzoyl)piperidin-4-yl]phenyl}-3-(imidazo[1,2-a]pyridin-7-ylmethyl)urea] | 3.36 nM |
| O=C(NCc1ccn2ccnc2c1)Nc1ccc(C2CCN(C(=O)C3CC=CCC3)CC2)cc1 (stereo not shown) [Example 945, 1-{4-[1-(cyclohex-3-en-1-ylcarbonyl)piperidin-4-yl]phenyl}-3-(imidazo[1,2-a]pyridin-7-ylmethyl)urea] | 2.38 nM |
| COc1ccc(OC)c(C(=O)N2CCC(c3ccc(NC(=O)NCc4ccn5ccnc5c4)cc3)CC2)c1 [Example 946, 1-{4-[1-(2,5-dimethoxybenzoyl)piperidin-4-yl]phenyl}-3-(imidazo[1,2-a]pyridin-7-ylmethyl)urea] | 5.94 nM |
| COc1ccccc1CC(=O)N1CCC(c2ccc(NC(=O)NCc3ccn4ccnc4c3)cc2)CC1 [Example 947, 1-(imidazo[1,2-a]pyridin-7-ylmethyl)-3-(4-{1-[(2-methoxyphenyl)acetyl]piperidin-4-yl}phenyl)urea] | 3.28 nM |
| O=C(NCc1ccn2ccnc2c1)Nc1ccc(C2CCN(C(=O)C(CO)c3ccccc3)CC2)cc1 (stereo not shown) [Example 948, 1-{4-[1-(3-hydroxy-2-phenylpropanoyl)piperidin-4-yl]phenyl}-3-(imidazo[1,2-a]pyridin-7-ylmethyl)urea] | 5.39 nM |
| COc1cccc(OC)c1C(=O)N1CCC(c2ccc(NC(=O)NCc3ccn4ccnc4c3)cc2)CC1 [Example 949, 1-{4-[1-(2,6-dimethoxybenzoyl)piperidin-4-yl]phenyl}-3-(imidazo[1,2-a]pyridin-7-ylmethyl)urea] | 25.4 nM |
| CCN(CC)CCC(=O)N1CCC(c2ccc(NC(=O)NCc3ccn4ccnc4c3)cc2)CC1 [Example 950, 1-{4-[1-(N,N-diethyl-beta-alanyl)piperidin-4-yl]phenyl}-3-(imidazo[1,2-a]pyridin-7-ylmethyl)urea] | 634 nM |
| Cc1cc(C(=O)N2CCC(c3ccc(NC(=O)NCc4ccn5ccnc5c4)cc3)CC2)cc(Cl)n1 [Example 951, 1-(4-{1-[(2-chloro-6-methylpyridin-4-yl)carbonyl]piperidin-4-yl}phenyl)-3-(imidazo[1,2-a]pyridin-7-ylmethyl)urea] | 63.9 nM |
| COc1cccc(CC(=O)N2CCC(c3ccc(NC(=O)NCc4ccn5ccnc5c4)cc3)CC2)c1 [Example 952, 1-(imidazo[1,2-a]pyridin-7-ylmethyl)-3-(4-{1-[(3-methoxyphenyl)acetyl]piperidin-4-yl}phenyl)urea] | 10.3 nM |
| O=C(NCc1ccn2ccnc2c1)Nc1ccc(C2CCN(C(=O)c3cccc4c3CCC4=O)CC2)cc1 [Example 953, 1-(imidazo[1,2-a]pyridin-7-ylmethyl)-3-(4-{1-[(1-oxo-2,3-dihydro-1H-inden-4-yl)carbonyl]piperidin-4-yl}phenyl)urea] | 2.35 nM |
| N#Cc1ccc(C(=O)N2CCC(c3ccc(NC(=O)NCc4ccn5ccnc5c4)cc3)CC2)c(Cl)c1 [Example 954, 1-{4-[1-(2-chloro-4-cyanobenzoyl)piperidin-4-yl]phenyl}-3-(imidazo[1,2-a]pyridin-7-ylmethyl)urea] | 2.76 nM |
| C/C=C(\C)C(=O)N1CCC(c2ccc(NC(=O)NCc3ccn4ccnc4c3)cc2)CC1 [Example 955, 1-(imidazo[1,2-a]pyridin-7-ylmethyl)-3-(4-{1-[(2E)-2-methylbut-2-enoyl]piperidin-4-yl}phenyl)urea] | 2.56 nM |
| O=C(NCc1ccn2ccnc2c1)Nc1ccc(C2CCN(C(=O)Cc3c[nH]c4ccccc34)CC2)cc1 [Example 956, 1-(imidazo[1,2-a]pyridin-7-ylmethyl)-3-{4-[1-(1H-indol-3-ylacetyl)piperidin-4-yl]phenyl}urea] | 8.83 nM |
| Cc1cccc(C(=O)N2CCC(c3ccc(NC(=O)NCc4ccn5ccnc5c4)cc3)CC2)c1O [Example 957, 1-{4-[1-(2-hydroxy-3-methylbenzoyl)piperidin-4-yl]phenyl}-3-(imidazo[1,2-a]pyridin-7-ylmethyl)urea] | 3.51 nM |
| O=C(NCc1ccn2ccnc2c1)c1ccc(C2CCN(C(=O)N3CCCC3)CC2)cc1 [Example 958, N-(imidazo[1,2-a]pyridin-7-ylmethyl)-4-[1-(pyrrolidin-1-ylcarbonyl)piperidin-4-yl]benzamide] | 21.4 nM |

| Structure (SMILES) | IC50 |
| --- | --- |
| CC(C)n1ccc(C(=O)N2CCC(c3ccc(C(=O)NCc4ccn5ccnc5c4)cc3)CC2)n1 [Example 959, N-(imidazo[1,2-a]pyridin-7-ylmethyl)-4-(1-{[1-(propan-2-yl)-1H-pyrazol-3-yl]carbonyl}piperidin-4-yl)benzamide] | 9.76 nM |
| Cn1nc(C2CC2)cc1C(=O)N1CCC(c2ccc(C(=O)NCc3ccn4ccnc4c3)cc2)CC1 [Example 960, 4-{1-[(3-cyclopropyl-1-methyl-1H-pyrazol-5-yl)carbonyl]piperidin-4-yl}-N-(imidazo[1,2-a]pyridin-7-ylmethyl)benzamide] | 6.13 nM |
| Cn1nc2c(c1C(=O)N1CCC(c3ccc(C(=O)NCc4ccn5ccnc5c4)cc3)CC1)CCCC2 [Example 961, N-(imidazo[1,2-a]pyridin-7-ylmethyl)-4-{1-[(2-methyl-4,5,6,7-tetrahydro-2H-indazol-3-yl)carbonyl]piperidin-4-yl}benzamide] | 8.94 nM |
| O=C(NCc1ccn2ccnc2c1)c1ccc(C2CCN(C(=O)c3onc4c3CCCC4)CC2)cc1 [Example 962, N-(imidazo[1,2-a]pyridin-7-ylmethyl)-4-[1-(4,5,6,7-tetrahydro-2,1-benzoxazol-3-ylcarbonyl)piperidin-4-yl]benzamide] | 16.1 nM |
| Cc1ccc(F)c(C(=O)N2CCC(c3ccc(C(=O)NCc4ccn5ccnc5c4)cc3)CC2)n1 [Example 963, 4-{1-[(3-fluoro-6-methylpyridin-2-yl)carbonyl]piperidin-4-yl}-N-(imidazo[1,2-a]pyridin-7-ylmethyl)benzamide] | 19.5 nM |
| O=C(NCc1ccn2ccnc2c1)c1ccc(C2CCN(C(=O)c3ccnc(Cl)c3F)CC2)cc1 [Example 964, 4-{1-[(2-chloro-3-fluoropyridin-4-yl)carbonyl]piperidin-4-yl}-N-(imidazo[1,2-a]pyridin-7-ylmethyl)benzamide] | 6.22 nM |
| O=C(NCc1ccn2ccnc2c1)c1ccc(C2CCN(C(=O)c3ncccc3Cl)CC2)cc1 [Example 965, 4-{1-[(3-chloropyridin-2-yl)carbonyl]piperidin-4-yl}-N-(imidazo[1,2-a]pyridin-7-ylmethyl)benzamide] | 8.31 nM |
| O=C(NCc1ccn2ccnc2c1)c1ccc(C2CCN(C(=O)C3(c4ccccn4)CC3)CC2)cc1 [Example 966, N-(imidazo[1,2-a]pyridin-7-ylmethyl)-4-(1-{[1-(pyridin-2-yl)cyclopropyl]carbonyl}piperidin-4-yl)benzamide] | 2.09 nM |
| O=C(NCc1ccn2ccnc2c1)c1ccc(C2CCN(C(=O)c3ccn(C4CCCC4)n3)CC2)cc1 [Example 967, 4-{1-[(1-cyclopentyl-1H-pyrazol-3-yl)carbonyl]piperidin-4-yl}-N-(imidazo[1,2-a]pyridin-7-ylmethyl)benzamide] | 3.96 nM |
| CC(Oc1cccc(F)c1)C(=O)N1CCC(c2ccc(C(=O)NCc3ccn4ccnc4c3)cc2)CC1 (stereo not shown) [Example 968, 4-{1-[2-(3-fluorophenoxy)propanoyl]piperidin-4-yl}-N-(imidazo[1,2-a]pyridin-7-ylmethyl)benzamide] | 1.77 nM |
| O=C(NCc1ccn2ccnc2c1)c1ccc(C2CCN(C(=O)c3ccnn3C(F)F)CC2)cc1 [Example 969, 4-(1-{[1-(difluoromethyl)-1H-pyrazol-5-yl]carbonyl}piperidin-4-yl)-N-(imidazo[1,2-a]pyridin-7-ylmethyl)benzamide] | 6.36 nM |
| O=C(NCc1ccn2ccnc2c1)c1ccc(C2CCN(C(=O)c3ccc4c(c3)CCCO4)CC2)cc1 [Example 970, 4-[1-(3,4-dihydro-2H-chromen-6-ylcarbonyl)piperidin-4-yl]-N-(imidazo[1,2-a]pyridin-7-ylmethyl)benzamide] | 10.9 nM |
| O=C(NCc1ccn2ccnc2c1)c1ccc(C2CCN(C(=O)COC3CCCCC3)CC2)cc1 [Example 971, 4-{1-[(cyclohexyloxy)acetyl]piperidin-4-yl}-N-(imidazo[1,2-a]pyridin-7-ylmethyl)benzamide] | 22.6 nM |
| O=C(NCc1ccn2ccnc2c1)c1ccc(C2CCN(C(=O)Cc3cccnc3Cl)CC2)cc1 [Example 972, 4-{1-[(2-chloropyridin-3-yl)acetyl]piperidin-4-yl}-N-(imidazo[1,2-a]pyridin-7-ylmethyl)benzamide] | 28.9 nM |
| O=C(NCc1ccn2ccnc2c1)c1ccc(C2CCN(C(=O)c3cc(C4CC4)on3)CC2)cc1 [Example 973, 4-{1-[(5-cyclopropyl-1,2-oxazol-3-yl)carbonyl]piperidin-4-yl}-N-(imidazo[1,2-a]pyridin-7-ylmethyl)benzamide] | 21.8 nM |
| O=C(NCc1ccn2ccnc2c1)c1ccc(C2CCN(C(=O)C3=Cc4ccccc4OC3)CC2)cc1 [Example 974, 4-[1-(2H-chromen-3-ylcarbonyl)piperidin-4-yl]-N-(imidazo[1,2-a]pyridin-7-ylmethyl)benzamide] | 28.7 nM |
| O=C(NCc1ccn2ccnc2c1)c1ccc(C2CCN(C(=O)c3ncc(F)cc3F)CC2)cc1 [Example 975, 4-{1-[(3,5-difluoropyridin-2-yl)carbonyl]piperidin-4-yl}-N-(imidazo[1,2-a]pyridin-7-ylmethyl)benzamide] | 50.3 nM |
